{
  "source": "ChEMBL document CHEMBL4699645",
  "about": "(2020)",
  "key": {"[1]": {"test": "Antagonist activity at rat alpha3beta2 nAChR Y114S mutant expressed in Xenopus laevis oocytes assessed as inhibition of Ach-induced response at -70 mV holding potential measured after 5 mins by voltage-clamp assay", "type": "cell-based", "details": "Oocyte"}, "[2]": {"test": "Antagonist activity at rat alpha3beta2 nAChR F106V mutant expressed in Xenopus laevis oocytes assessed as inhibition of Ach-induced response at -70 mV holding potential measured after 5 mins by voltage-clamp assay", "type": "cell-based", "details": "Oocyte"}, "Oocyte [3]": {"test_system": "Oocyte", "test": "Antagonist activity at rat alpha3beta2 nAChR S113R mutant expressed in Xenopus laevis oocytes assessed as inhibition of Ach-induced response at 10 nM at -70 mV holding potential measured after 5 mins by voltage-clamp assay relative to control", "type": "cell-based", "details": "filed as antagonist"}, "[4]": {"molecular_target": "T1, Neuronal acetylcholine receptor; alpha3/beta2 (Rattus norvegicus) (UniProt P04757+P12390)", "test": "Antagonist activity at rat wild-type alpha3beta2 nAChR expressed in Xenopus laevis oocytes assessed as inhibition of Ach-induced response at 10 nM at -70 mV holding potential measured after 5 mins by voltage-clamp assay relative to control", "type": "cell-based", "details": "Oocyte"}, "[5]": {"test": "Antagonist activity at rat alpha3beta2 nAChR L169M mutant expressed in Xenopus laevis oocytes assessed as inhibition of Ach-induced response at -70 mV holding potential measured after 5 mins by voltage-clamp assay", "type": "cell-based", "details": "Oocyte"}, "[6]": {"test": "Antagonist activity at rat alpha3beta2 nAChR S168I mutant expressed in Xenopus laevis oocytes assessed as inhibition of Ach-induced response at -70 mV holding potential measured after 5 mins by voltage-clamp assay", "type": "cell-based", "details": "Oocyte"}, "[7]": {"test": "Antagonist activity at rat alpha3beta2 nAChR A110V mutant expressed in Xenopus laevis oocytes assessed as inhibition of Ach-induced response at -70 mV holding potential measured after 5 mins by voltage-clamp assay", "type": "cell-based", "details": "Oocyte"}, "[8]": {"test": "Antagonist activity at rat alpha3beta2 nAChR S108T mutant expressed in Xenopus laevis oocytes assessed as inhibition of Ach-induced response at -70 mV holding potential measured after 5 mins by voltage-clamp assay", "type": "cell-based", "details": "Oocyte"}, "[9]": {"molecular_target": "T1, Neuronal acetylcholine receptor; alpha3/beta2 (Rattus norvegicus)", "test": "Antagonist activity at wild type rat alpha3beta2 nAChR expressed in Xenopus laevis oocytes assessed as inhibition of Ach-induced response at 1 uM at -70 mV holding potential measured after 5 mins by voltage-clamp assay relative to control", "type": "cell-based", "details": "Oocyte, filed as antagonist"}, "Oocyte [10]": {"test_system": "Oocyte", "test": "Antagonist activity at rat alpha3beta2 nAChR S168I mutant expressed in Xenopus laevis oocytes assessed as inhibition of Ach-induced response at 10 nM at -70 mV holding potential measured after 5 mins by voltage-clamp assay relative to control", "type": "cell-based", "details": "filed as antagonist"}, "[11]": {"test": "Antagonist activity at rat alpha3beta2 nAChR D165P mutant expressed in Xenopus laevis oocytes assessed as inhibition of Ach-induced response at -70 mV holding potential measured after 5 mins by voltage-clamp assay", "type": "cell-based", "details": "Oocyte"}, "[12]": {"test": "Displacement of [125I]-alpha-bungarotoxin from Aplysia californica C-terminal His6-tagged N-terminal gp67 signal peptide-tagged acetylcholine receptor binding protein expressed in Hi5 insect cells preincubated for 3 hrs followed by [125I]-alpha-bungarotoxin measured after 5 mins by radioligand binding assay"}, "Oocyte [13]": {"test_system": "Oocyte", "test": "Antagonist activity at rat alpha3beta2 nAChR S108T mutant expressed in Xenopus laevis oocytes assessed as inhibition of Ach-induced response at 1 uM at -70 mV holding potential measured after 5 mins by voltage-clamp assay relative to control", "type": "cell-based"}, "Oocyte [14]": {"test_system": "Oocyte", "test": "Antagonist activity at rat alpha3beta2 nAChR F106V mutant expressed in Xenopus laevis oocytes assessed as inhibition of Ach-induced response at 1 uM at -70 mV holding potential measured after 5 mins by voltage-clamp assay relative to control", "type": "cell-based", "details": "filed as antagonist"}, "[15]": {"test": "Antagonist activity at rat alpha3beta2 nAChR D115N mutant expressed in Xenopus laevis oocytes assessed as inhibition of Ach-induced response at -70 mV holding potential measured after 5 mins by voltage-clamp assay", "type": "cell-based", "details": "Oocyte"}, "[16]": {"test": "Antagonist activity at rat alpha3beta2 nAChR V166T mutant expressed in Xenopus laevis oocytes assessed as inhibition of Ach-induced response at -70 mV holding potential measured after 5 mins by voltage-clamp assay", "type": "cell-based", "details": "Oocyte"}, "[17]": {"test": "Antagonist activity at rat alpha3beta2 nAChR S113R mutant expressed in Xenopus laevis oocytes assessed as inhibition of Ach-induced response at -70 mV holding potential measured after 5 mins by voltage-clamp assay", "type": "cell-based", "details": "Oocyte"}, "Oocyte [18]": {"test_system": "Oocyte", "test": "Antagonist activity at rat alpha3beta2 nAChR S168I mutant expressed in Xenopus laevis oocytes assessed as inhibition of Ach-induced response by measuring recovery of ACh-induced response time at 10 nM with -70 mV holding potential measured after 5 mins voltage-clamp assay", "type": "cell-based"}, "Rattus norvegicus": {"species_on_record": "Rattus norvegicus", "test": "Selectivity index, ratio of IC50 for rat alpha3beta4 nAChR expressed in Xenopus laevis oocytes to IC50 for rat alpha3beta2 nAChR expressed in Xenopus laevis oocytes", "type": "cell-based"}, "[19]": {"molecular_target": "T1, Neuronal acetylcholine receptor; alpha3/beta2 (Rattus norvegicus)", "test": "Antagonist activity at rat alpha3beta2 nAChR expressed in Xenopus laevis oocytes assessed as inhibition of Ach-induced response by measuring recovery of ACh-induced response time at 10 nM with -70 mV holding potential measured after 5 mins voltage-clamp assay", "type": "cell-based", "details": "Oocyte"}, "[20]": {"molecular_target": "T1, Neuronal acetylcholine receptor; alpha3/beta2 (Rattus norvegicus)", "test": "Antagonist activity at rat alpha3beta2 nAChR expressed in Xenopus laevis oocytes assessed as inhibition of Ach-induced response at -70 mV holding potential incubated for 5 mins by voltage-clamp assay relative to LvIA IC50", "type": "cell-based", "details": "Oocyte"}, "Hi-5": {"test_system": "Hi-5", "test": "Displacement of [125I]-alpha-bungarotoxin from Aplysia californica C-terminal His6-tagged N-terminal gp67 signal peptide-tagged acetylcholine receptor binding protein expressed in Hi5 insect cells preincubated for 3 hrs followed by [125I]-alpha-bungarotoxin measured after 5 mins by radioligand binding assay relative to LvIA IC50", "details": "time 185.0 min"}, "[21]": {"molecular_target": "Neuronal acetylcholine receptor; alpha3/beta4 (Rattus norvegicus, UniProt P04757+P12392)", "sequence (P04757 whole entry)": "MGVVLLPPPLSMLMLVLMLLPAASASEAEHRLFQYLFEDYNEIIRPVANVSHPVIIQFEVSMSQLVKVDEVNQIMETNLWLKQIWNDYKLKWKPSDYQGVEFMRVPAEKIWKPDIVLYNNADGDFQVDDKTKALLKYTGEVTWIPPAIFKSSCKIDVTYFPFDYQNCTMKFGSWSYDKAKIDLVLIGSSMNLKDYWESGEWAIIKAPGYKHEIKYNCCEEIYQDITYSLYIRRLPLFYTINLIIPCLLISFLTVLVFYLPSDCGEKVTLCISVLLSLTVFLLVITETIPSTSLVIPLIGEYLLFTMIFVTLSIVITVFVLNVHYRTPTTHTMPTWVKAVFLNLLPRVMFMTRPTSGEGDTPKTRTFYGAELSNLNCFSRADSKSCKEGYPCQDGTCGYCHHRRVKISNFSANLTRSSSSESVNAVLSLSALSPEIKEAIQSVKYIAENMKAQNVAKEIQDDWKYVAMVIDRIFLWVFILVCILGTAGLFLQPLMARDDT", "sequence (P12392 whole entry)": "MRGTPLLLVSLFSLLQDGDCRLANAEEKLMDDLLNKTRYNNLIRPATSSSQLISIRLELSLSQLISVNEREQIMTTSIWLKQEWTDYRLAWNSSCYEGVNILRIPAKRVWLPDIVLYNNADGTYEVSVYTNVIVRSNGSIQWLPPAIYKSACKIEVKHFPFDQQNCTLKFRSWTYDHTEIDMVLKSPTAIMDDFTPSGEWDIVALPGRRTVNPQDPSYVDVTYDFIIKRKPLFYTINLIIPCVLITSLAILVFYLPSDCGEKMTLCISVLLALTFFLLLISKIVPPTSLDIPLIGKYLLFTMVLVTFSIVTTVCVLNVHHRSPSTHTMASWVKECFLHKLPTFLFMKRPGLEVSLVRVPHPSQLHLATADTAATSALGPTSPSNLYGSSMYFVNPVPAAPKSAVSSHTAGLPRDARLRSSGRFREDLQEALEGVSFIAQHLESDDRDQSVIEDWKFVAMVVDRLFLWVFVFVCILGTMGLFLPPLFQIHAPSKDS", "test": "Antagonist activity at rat alpha3beta4 nAChR expressed in Xenopus laevis oocytes assessed as inhibition of Ach-induced response at -70 mV holding potential incubated for 5 mins by voltage-clamp assay", "type": "cell-based, Oocyte"}, "[22]": {"molecular_target": "Neuronal acetylcholine receptor; alpha3/beta2 (Rattus norvegicus, UniProt P04757+P12390)", "sequence (P04757 whole entry)": "as the sequence (P04757 whole entry) above", "sequence (P12390 whole entry)": "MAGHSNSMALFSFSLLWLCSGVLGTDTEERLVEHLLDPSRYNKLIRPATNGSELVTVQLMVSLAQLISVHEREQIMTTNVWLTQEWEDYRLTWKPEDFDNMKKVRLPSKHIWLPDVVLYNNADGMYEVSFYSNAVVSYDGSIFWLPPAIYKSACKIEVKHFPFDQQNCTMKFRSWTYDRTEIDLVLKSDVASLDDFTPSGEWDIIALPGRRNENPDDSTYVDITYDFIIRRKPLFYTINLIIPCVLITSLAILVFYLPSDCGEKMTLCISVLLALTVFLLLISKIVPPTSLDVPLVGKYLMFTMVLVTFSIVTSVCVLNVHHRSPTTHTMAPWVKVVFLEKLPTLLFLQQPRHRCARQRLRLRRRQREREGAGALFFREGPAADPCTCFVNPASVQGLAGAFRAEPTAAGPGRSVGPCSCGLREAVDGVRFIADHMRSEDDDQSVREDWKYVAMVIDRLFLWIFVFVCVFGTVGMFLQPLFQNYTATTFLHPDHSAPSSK", "test": "Antagonist activity at rat alpha3beta2 nAChR expressed in Xenopus laevis oocytes assessed as inhibition of Ach-induced response at -70 mV holding potential incubated for 5 mins by voltage-clamp assay", "type": "cell-based, Oocyte"}, "[23]": {"molecular_target": "Neuronal acetylcholine receptor; alpha3/beta4 (Rattus norvegicus) (UniProt P04757+P12392)", "test": "Antagonist activity at rat alpha3beta4 nAChR expressed in Xenopus laevis oocytes assessed as inhibition of Ach-induced response at -70 mV holding potential incubated for 5 mins by voltage-clamp assay relative to LvIA IC50", "type": "cell-based", "details": "Oocyte"}},
  "note": "pIC50: −log10 of the molar value. Where a SMILES comes first, the peptide text is derived from it. Bridges are numbered along the chain shown (N, C = ends).",
  "data": [
    {"smiles": "CC[C@H](C)[C@@H]1NC(=O)[C@H](CCC(=O)O)NC(=O)[C@@H]2CCCN2C(=O)[C@H](Cc2cnc[nH]2)NC(=O)[C@H](CC(=O)O)NC(=O)[C@H](C(C)C)NC(=O)[C@H](CC(N)=O)NC(=O)[C@@H]2CSSC[C@H](NC(=O)CN)C(=O)N[C@@H](CSSC[C@@H](C(N)=O)NC1=O)C(=O)N[C@@H](CO)C(=O)N[C@@H](Cc1cnc[nH]1)C(=O)N1CCC[C@H]1C(=O)N[C@@H](C)C(=O)N2", "values": [
      {"measurement": "pIC50", "setting": "[1]", "result": 7.50},
      {"measurement": "pIC50", "setting": "[2]", "result": 6.40},
      {"measurement": "inhibition", "setting": "Oocyte [3]", "result": 91.9, "unit": "%"},
      {"measurement": "inhibition", "setting": "[4]", "result": 28.8, "unit": "%"},
      {"measurement": "pIC50", "setting": "[5]", "result": 7.53},
      {"measurement": "pIC50", "setting": "[6]", "result": 9.15},
      {"measurement": "pIC50", "setting": "[7]", "result": 7.27},
      {"measurement": "pIC50", "setting": "[8]", "result": 5.78},
      {"measurement": "inhibition", "setting": "[9]", "result": 94.4, "unit": "%"},
      {"measurement": "inhibition", "setting": "Oocyte [10]", "result": 94.6, "unit": "%"},
      {"measurement": "pIC50", "setting": "[11]", "result": 7.78},
      {"measurement": "pIC50", "setting": "[12]", "result": 5.64},
      {"measurement": "inhibition", "setting": "Oocyte [13]", "result": 33.4, "unit": "%"},
      {"measurement": "inhibition", "setting": "Oocyte [14]", "result": 55, "unit": "%"},
      {"measurement": "pIC50", "setting": "[15]", "result": 7.63},
      {"measurement": "pIC50", "setting": "[16]", "result": 7.50},
      {"measurement": "pIC50", "setting": "[17]", "result": 8.39}
    ]},
    {"smiles": "CC[C@H](C)[C@@H]1NC(=O)[C@H](CCC(=O)O)NC(=O)[C@@H]2CCCN2C(=O)[C@H](Cc2cnc[nH]2)NC(=O)[C@H](CC(=O)O)NC(=O)[C@H](C(C)C)NC(=O)[C@H](C)NC(=O)[C@@H]2CSSC[C@H](NC(=O)CN)C(=O)N[C@@H](CSSC[C@@H](C(N)=O)NC1=O)C(=O)N[C@@H](CO)C(=O)N[C@@H](Cc1cnc[nH]1)C(=O)N1CCC[C@H]1C(=O)N[C@@H](C)C(=O)N2", "note": "(H-GCCSHPACAVDHPEIC-NH2; disulfide 2-8, 3-16)", "values": [
      {"measurement": "pIC50", "setting": "[6]", "result": 9.18},
      {"measurement": "TIME", "setting": "Oocyte [18]", "result": "> 0.333", "unit": "h"},
      {"measurement": "Ratio IC50", "setting": "Rattus norvegicus", "result": 2030},
      {"measurement": "TIME", "setting": "[19]", "result": 0.0167, "unit": "h"},
      {"measurement": "Ratio IC50", "setting": "[20]", "result": 0.13},
      {"measurement": "Ratio IC50", "setting": "Hi-5", "result": -0.48},
      {"measurement": "pIC50", "setting": "[21]", "result": 5.37},
      {"measurement": "pIC50", "setting": "[22]", "result": 8.68},
      {"measurement": "pIC50", "setting": "[12]", "result": 6.12},
      {"measurement": "Ratio IC50", "setting": "[23]", "result": 14.7}
    ]}
  ]
}
